Measurements: patent EP0192611A2, “Acylated hexose derivatives and method for their preparation” (CIBA-GEIGY AG, priority 1985, dated 1986)

Tested on: Influenza-Viren
Experiment: Own studies: prophylaxis and therapy of virus infection in mice infected with influenza viruses
Assay type: in vivo, Mäuse
Conditions: per se, without admixed vaccine
Text: Aus der Französischen Patentanmeldung Nr. 74 22 909 mit der Publikationsnummer 2 292 486 sind Huramylpeptide vom Typ der Verbindung N-Acetyl-muramyl-L-alanyl-D-isoglutamin ("MDP") bekannt. Diese Verbindungen sind als immunologische Adjuvanzien beschrieben, d.h. sie können in Mischung mit Impfstoffen dazu benützt werden, den Impferfolg zu verbessern. Eigene Untersuchungen, z.B. bei mit Influenza-Viren infizierten Mäusen, haben ergeben, dass N-Acetyl-muramyl-L-alanyl-D-isoglutamin per se, d.h. ohne Beimengung von Impfstoffen, bei der Prophylaxe und Therapie von Virusinfektionen unwirksam ist. Auch ist die Verwendbarkeit strukturell einfacher Muramylpeptide und ihrer Analogen gegen Virusinfektionen bisher nicht beschrieben.

CC(=O)N[C@H]1C(O)O[C@H](CO)[C@@H](O)[C@@H]1O[C@H](C)C(=O)N[C@@H](C)C(=O)N[C@H](CCC(=O)O)C(N)=O (stereo partly drawn) [N-Acetyl-muramyl-L-alanyl-D-isoglutamin]
Wirksamkeit bei der Prophylaxe und Therapie von Virusinfektionen: unwirksam
